Molecular target: T1, Tyrosine-protein phosphatase non-receptor type 1 (Rattus norvegicus) (UniProt P20417)
T1 sequence (whole entry): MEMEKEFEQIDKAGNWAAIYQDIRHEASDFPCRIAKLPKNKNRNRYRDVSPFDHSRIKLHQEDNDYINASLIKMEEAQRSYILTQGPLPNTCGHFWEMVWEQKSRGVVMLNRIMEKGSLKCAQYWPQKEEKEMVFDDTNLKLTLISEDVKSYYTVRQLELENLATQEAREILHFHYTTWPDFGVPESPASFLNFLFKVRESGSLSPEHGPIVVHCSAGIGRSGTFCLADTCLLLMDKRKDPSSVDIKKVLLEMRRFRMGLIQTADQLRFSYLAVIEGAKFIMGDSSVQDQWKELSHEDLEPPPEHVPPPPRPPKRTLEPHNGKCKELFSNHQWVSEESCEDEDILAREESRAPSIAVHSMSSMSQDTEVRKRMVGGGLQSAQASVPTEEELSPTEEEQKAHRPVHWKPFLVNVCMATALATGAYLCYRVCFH
Assay: Percent inhibition of Protein-tyrosine phosphatase 1 (PTP) assayed at 100 uM
Details: not given

SMILES	inhibition
CCCCNC(=O)C(Cc1ccc(OC(C(=O)O)C(=O)O)cc1)NC(=O)CCC(=O)O (stereo unspecified)	37%
CCCCCNC(=O)C(Cc1ccc(OCC(=O)O)c(C(=O)O)c1)NC(=O)CCC(=O)O (stereo unspecified)	93%
O=C(O)CCC(=O)NC(Cc1ccc(OC(C(=O)O)C(=O)O)cc1)C(=O)NCc1ccc(C(=O)O)cc1 (stereo unspecified)	56%
O=C(O)CCC(=O)NC(Cc1ccc(OC(C(=O)O)C(=O)O)cc1)C(=O)NCCOc1ccccc1 (stereo unspecified)	57%
CCCCCNC(=O)C(Cc1ccc(OC(C(=O)O)C(=O)O)c(F)c1F)NC(=O)CCC(=O)O (stereo unspecified)	85%
CCCCCNC(=O)C(Cc1ccc(OCC(=O)O)c(C(N)=O)c1)NC(=O)CCC(=O)O (stereo unspecified)	11%
CCCCCNC(=O)[C@H](Cc1ccc(OC(C(=O)O)C(=O)O)cc1)NC(=O)[C@H](Cc1ccc(C(=O)c2ccccc2)cc1)NC(=O)CCC(=O)O	98%
CCOC(CNC(=O)C(Cc1ccc(OC(C(=O)O)C(=O)O)cc1)NC(=O)CCC(=O)O)OCC (stereo unspecified)	46%

Molecular target: T2, Tyrosine-protein phosphatase non-receptor type 11 (Mus musculus) (UniProt P35235)
T2 sequence (whole entry): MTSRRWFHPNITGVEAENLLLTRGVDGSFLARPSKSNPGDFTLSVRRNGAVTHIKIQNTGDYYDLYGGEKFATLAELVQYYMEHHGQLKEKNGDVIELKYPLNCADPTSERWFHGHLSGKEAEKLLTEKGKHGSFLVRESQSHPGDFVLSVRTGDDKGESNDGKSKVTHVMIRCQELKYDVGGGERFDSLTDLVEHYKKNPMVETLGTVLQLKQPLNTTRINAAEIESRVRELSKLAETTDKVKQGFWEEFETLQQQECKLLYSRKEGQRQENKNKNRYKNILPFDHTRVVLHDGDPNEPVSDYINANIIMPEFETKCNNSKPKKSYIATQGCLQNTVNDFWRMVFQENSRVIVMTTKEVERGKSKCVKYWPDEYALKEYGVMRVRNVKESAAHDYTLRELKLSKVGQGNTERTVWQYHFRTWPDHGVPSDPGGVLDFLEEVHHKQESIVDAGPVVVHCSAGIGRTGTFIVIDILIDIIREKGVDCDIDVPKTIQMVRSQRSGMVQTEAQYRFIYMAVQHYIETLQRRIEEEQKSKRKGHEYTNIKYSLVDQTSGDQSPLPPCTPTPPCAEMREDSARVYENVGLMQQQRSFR
Assay: Percent inhibition of Tyrosine phosphatase SHP2 SH2 domain containing PTP involved in insulin uM
Design: concentration or dose not given beside the values
Details: concentration not given here

SMILES	inhibition
CCCCCNC(=O)[C@H](Cc1ccc(OCC(=O)O)c(C(=O)O)c1)NC(=O)[C@@H](Cc1ccccc1)NC(=O)OC(C)(C)C	0%
CCCCCNC(=O)C(Cc1ccc(OCC(=O)OC)c(C(=O)OC)c1)NC(=O)[C@H](Cc1ccccc1)NC(=O)OC(C)(C)C (stereo partly specified)	1%
CCCCCNC(=O)C(Cc1ccc(OCC(=O)OC)c(C(=O)OC)c1)NC(=O)[C@H](Cc1ccccc1)NC(=O)CCC(=O)OC (stereo partly specified)	0%
CCCCCNC(=O)C(Cc1ccc(OCC(=O)O)c(C(=O)O)c1)NC(=O)[C@H](Cc1ccccc1)NC(=O)CCC(=O)O (stereo partly specified)	10%
CCCCNC(=O)C(Cc1ccc(OC(C(=O)O)C(=O)O)cc1)NC(=O)CCC(=O)O (stereo unspecified)	1%
CCCCCNC(=O)C(Cc1ccc(OCC(=O)O)c(C(=O)O)c1)NC(=O)CCC(=O)O (stereo unspecified)	5%
O=C(O)CCC(=O)NC(Cc1ccc(OC(C(=O)O)C(=O)O)cc1)C(=O)NCc1ccc(C(=O)O)cc1 (stereo unspecified)	58%
O=C(O)CCC(=O)NC(Cc1ccc(OC(C(=O)O)C(=O)O)cc1)C(=O)NCCOc1ccccc1 (stereo unspecified)	34%
CCCCCNC(=O)C(Cc1ccc(OC(C(=O)O)C(=O)O)c(F)c1F)NC(=O)CCC(=O)O (stereo unspecified)	23%
CCCCCNC(=O)C(Cc1ccc(OCC(=O)O)c(C(N)=O)c1)NC(=O)CCC(=O)O (stereo unspecified)	1%
CCCCCNC(=O)[C@H](Cc1ccc(OC(C(=O)O)C(=O)O)cc1)NC(=O)[C@H](Cc1ccc(C(=O)c2ccccc2)cc1)NC(=O)CCC(=O)O	71%
CCOC(CNC(=O)C(Cc1ccc(OC(C(=O)O)C(=O)O)cc1)NC(=O)CCC(=O)O)OCC (stereo unspecified)	11%

Molecular target: T3, Tyrosine-protein phosphatase non-receptor type 1 (Homo sapiens) (UniProt P18031)
T3 sequence (whole entry): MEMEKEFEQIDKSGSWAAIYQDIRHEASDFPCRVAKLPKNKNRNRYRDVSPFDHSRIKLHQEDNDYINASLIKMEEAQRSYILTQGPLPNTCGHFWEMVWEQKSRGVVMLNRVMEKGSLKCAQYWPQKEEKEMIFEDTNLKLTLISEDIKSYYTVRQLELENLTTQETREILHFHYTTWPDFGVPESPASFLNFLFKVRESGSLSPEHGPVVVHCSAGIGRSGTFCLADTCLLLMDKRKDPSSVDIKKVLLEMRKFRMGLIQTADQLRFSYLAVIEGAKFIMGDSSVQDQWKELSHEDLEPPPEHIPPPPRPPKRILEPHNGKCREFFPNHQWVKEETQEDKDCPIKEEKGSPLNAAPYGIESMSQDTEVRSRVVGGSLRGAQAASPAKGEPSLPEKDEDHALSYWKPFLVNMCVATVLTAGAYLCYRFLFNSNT
Assay: Percent inhibition of Protein Tyrosine Phosphatase 1B (PTP 1B) assayed at 100 uM
Details: not given

SMILES	inhibition
CCCCCNC(=O)[C@H](Cc1ccc(OCC(=O)O)c(C(=O)O)c1)NC(=O)[C@@H](Cc1ccccc1)NC(=O)OC(C)(C)C	19%
CCCCCNC(=O)C(Cc1ccc(OCC(=O)OC)c(C(=O)OC)c1)NC(=O)[C@H](Cc1ccccc1)NC(=O)OC(C)(C)C (stereo partly specified)	0%
CCCCCNC(=O)C(Cc1ccc(OCC(=O)OC)c(C(=O)OC)c1)NC(=O)[C@H](Cc1ccccc1)NC(=O)CCC(=O)OC (stereo partly specified)	0%
CCCCCNC(=O)C(Cc1ccc(OCC(=O)O)c(C(=O)O)c1)NC(=O)[C@H](Cc1ccccc1)NC(=O)CCC(=O)O (stereo partly specified)	93%
CCCCCNC(=O)C(Cc1ccc(OCC(=O)O)c(C(=O)O)c1)NC(=O)CCC(=O)O (stereo unspecified)	87%
CCCCCNC(=O)[C@H](Cc1ccc(OC(C(=O)O)C(=O)O)cc1)NC(=O)[C@H](Cc1ccc(C(=O)c2ccccc2)cc1)NC(=O)CCC(=O)O	98%

System: not listed separately
Assay: Uptake of 2-deoxyglucose into L-6 myocytes, measurements were taken in absence of insulin (basal), assayed at 100 uM
Format: functional
Details: not given

SMILES	2-deoxyglucose uptake, % of control
CCCCCNC(=O)[C@H](Cc1ccc(OCC(=O)O)c(C(=O)O)c1)NC(=O)[C@@H](Cc1ccccc1)NC(=O)OC(C)(C)C	107%
CCCCCNC(=O)C(Cc1ccc(OCC(=O)OC)c(C(=O)OC)c1)NC(=O)[C@H](Cc1ccccc1)NC(=O)OC(C)(C)C (stereo partly specified)	114%
CCCCCNC(=O)C(Cc1ccc(OCC(=O)OC)c(C(=O)OC)c1)NC(=O)[C@H](Cc1ccccc1)NC(=O)CCC(=O)OC (stereo partly specified)	225%
CCCCCNC(=O)C(Cc1ccc(OCC(=O)O)c(C(=O)O)c1)NC(=O)[C@H](Cc1ccccc1)NC(=O)CCC(=O)O (stereo partly specified)	105%

System: not listed separately
Assay: Uptake of 2-deoxyglucose into L-6 myocytes, measurements were taken in presence of insulin (+ins), assayed at 100 uM
Format: functional
Details: not given

SMILES	2-deoxyglucose uptake, % of control
CCCCCNC(=O)[C@H](Cc1ccc(OCC(=O)O)c(C(=O)O)c1)NC(=O)[C@@H](Cc1ccccc1)NC(=O)OC(C)(C)C	89%
CCCCCNC(=O)C(Cc1ccc(OCC(=O)OC)c(C(=O)OC)c1)NC(=O)[C@H](Cc1ccccc1)NC(=O)OC(C)(C)C (stereo partly specified)	72%
CCCCCNC(=O)C(Cc1ccc(OCC(=O)OC)c(C(=O)OC)c1)NC(=O)[C@H](Cc1ccccc1)NC(=O)CCC(=O)OC (stereo partly specified)	77%
CCCCCNC(=O)C(Cc1ccc(OCC(=O)O)c(C(=O)O)c1)NC(=O)[C@H](Cc1ccccc1)NC(=O)CCC(=O)O (stereo partly specified)	83%

Molecular target: Receptor-type tyrosine-protein phosphatase F (Homo sapiens) (UniProt P10586)
Sequence (P10586 whole entry): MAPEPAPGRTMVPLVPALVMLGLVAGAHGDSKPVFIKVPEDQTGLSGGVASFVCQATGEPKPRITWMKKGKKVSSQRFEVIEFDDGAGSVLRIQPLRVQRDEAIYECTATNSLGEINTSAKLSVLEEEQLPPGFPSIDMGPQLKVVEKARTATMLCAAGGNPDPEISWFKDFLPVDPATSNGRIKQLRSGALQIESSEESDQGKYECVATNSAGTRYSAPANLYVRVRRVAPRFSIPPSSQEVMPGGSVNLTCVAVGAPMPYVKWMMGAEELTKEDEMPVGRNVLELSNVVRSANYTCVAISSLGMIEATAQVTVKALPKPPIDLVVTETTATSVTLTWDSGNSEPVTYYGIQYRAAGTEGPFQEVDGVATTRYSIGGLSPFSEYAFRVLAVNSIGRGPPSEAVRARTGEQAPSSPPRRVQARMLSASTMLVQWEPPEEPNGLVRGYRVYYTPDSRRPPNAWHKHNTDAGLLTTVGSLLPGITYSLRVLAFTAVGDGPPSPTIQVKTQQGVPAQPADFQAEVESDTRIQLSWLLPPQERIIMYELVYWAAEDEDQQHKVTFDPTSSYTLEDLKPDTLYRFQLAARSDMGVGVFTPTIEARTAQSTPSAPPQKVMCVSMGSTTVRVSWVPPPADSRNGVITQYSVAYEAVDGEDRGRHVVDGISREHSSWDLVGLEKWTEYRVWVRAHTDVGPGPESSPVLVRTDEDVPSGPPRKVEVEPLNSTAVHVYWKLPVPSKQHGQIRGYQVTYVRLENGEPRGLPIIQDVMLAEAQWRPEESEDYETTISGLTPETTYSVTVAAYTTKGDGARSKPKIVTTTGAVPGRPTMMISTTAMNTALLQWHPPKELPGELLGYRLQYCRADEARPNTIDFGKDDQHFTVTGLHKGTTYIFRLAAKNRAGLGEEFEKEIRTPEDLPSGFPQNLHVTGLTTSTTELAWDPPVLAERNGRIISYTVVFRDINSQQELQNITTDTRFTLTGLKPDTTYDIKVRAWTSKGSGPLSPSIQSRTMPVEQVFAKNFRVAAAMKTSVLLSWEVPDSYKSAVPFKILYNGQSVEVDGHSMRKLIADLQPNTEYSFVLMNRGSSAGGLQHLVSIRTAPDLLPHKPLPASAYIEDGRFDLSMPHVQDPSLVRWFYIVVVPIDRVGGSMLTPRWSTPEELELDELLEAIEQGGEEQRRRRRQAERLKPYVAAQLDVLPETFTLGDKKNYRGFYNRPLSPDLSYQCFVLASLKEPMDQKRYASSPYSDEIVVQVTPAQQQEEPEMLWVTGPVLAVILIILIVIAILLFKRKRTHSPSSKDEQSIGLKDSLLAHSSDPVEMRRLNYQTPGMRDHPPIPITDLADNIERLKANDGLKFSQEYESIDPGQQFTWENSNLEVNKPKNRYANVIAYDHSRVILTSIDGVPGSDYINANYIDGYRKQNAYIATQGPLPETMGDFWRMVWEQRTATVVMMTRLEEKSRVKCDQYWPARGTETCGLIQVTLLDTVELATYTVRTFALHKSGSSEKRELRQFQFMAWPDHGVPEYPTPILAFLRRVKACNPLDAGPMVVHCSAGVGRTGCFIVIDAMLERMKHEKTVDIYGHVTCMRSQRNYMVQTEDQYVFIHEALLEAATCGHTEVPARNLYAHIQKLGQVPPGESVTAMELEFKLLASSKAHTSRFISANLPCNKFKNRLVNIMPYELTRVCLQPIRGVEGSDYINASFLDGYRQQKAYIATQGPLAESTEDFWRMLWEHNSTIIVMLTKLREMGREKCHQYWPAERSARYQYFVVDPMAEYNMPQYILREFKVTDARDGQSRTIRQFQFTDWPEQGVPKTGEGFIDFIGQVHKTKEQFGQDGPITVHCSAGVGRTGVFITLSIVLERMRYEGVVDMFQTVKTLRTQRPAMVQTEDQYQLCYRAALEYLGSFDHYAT
Assay: Percent inhibition of Protein-tyrosine phosphatase Lar assayed at 100 uM
Details: not given

SMILES	inhibition
CCCCCNC(=O)[C@H](Cc1ccc(OCC(=O)O)c(C(=O)O)c1)NC(=O)[C@@H](Cc1ccccc1)NC(=O)OC(C)(C)C	0%
CCCCCNC(=O)C(Cc1ccc(OCC(=O)OC)c(C(=O)OC)c1)NC(=O)[C@H](Cc1ccccc1)NC(=O)OC(C)(C)C (stereo partly specified)	0%
CCCCCNC(=O)C(Cc1ccc(OCC(=O)OC)c(C(=O)OC)c1)NC(=O)[C@H](Cc1ccccc1)NC(=O)CCC(=O)OC (stereo partly specified)	3%
CCCCCNC(=O)C(Cc1ccc(OCC(=O)O)c(C(=O)O)c1)NC(=O)[C@H](Cc1ccccc1)NC(=O)CCC(=O)O (stereo partly specified)	0%
CCCCNC(=O)C(Cc1ccc(OC(C(=O)O)C(=O)O)cc1)NC(=O)CCC(=O)O (stereo unspecified)	5%
CCCCCNC(=O)C(Cc1ccc(OCC(=O)O)c(C(=O)O)c1)NC(=O)CCC(=O)O (stereo unspecified)	0%
O=C(O)CCC(=O)NC(Cc1ccc(OC(C(=O)O)C(=O)O)cc1)C(=O)NCc1ccc(C(=O)O)cc1 (stereo unspecified)	2%
O=C(O)CCC(=O)NC(Cc1ccc(OC(C(=O)O)C(=O)O)cc1)C(=O)NCCOc1ccccc1 (stereo unspecified)	4%
CCCCCNC(=O)C(Cc1ccc(OC(C(=O)O)C(=O)O)c(F)c1F)NC(=O)CCC(=O)O (stereo unspecified)	12%
CCCCCNC(=O)C(Cc1ccc(OCC(=O)O)c(C(N)=O)c1)NC(=O)CCC(=O)O (stereo unspecified)	0%
CCCCCNC(=O)[C@H](Cc1ccc(OC(C(=O)O)C(=O)O)cc1)NC(=O)[C@H](Cc1ccc(C(=O)c2ccccc2)cc1)NC(=O)CCC(=O)O	26%
CCOC(CNC(=O)C(Cc1ccc(OC(C(=O)O)C(=O)O)cc1)NC(=O)CCC(=O)O)OCC (stereo unspecified)	3%
